pIC50: −log10 of the molar value. Active and inactive are the calls of the source.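 How the source made its calls: active means IC50 of 10 µM or lower; inactive means IC50 above 10 µM.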
Tested on: HEK-293 Gal4-VP16 UAS luciferase reporter, luminescence
Assay: VP16 transactivation inhibitor potency, dose response, counter-screen for SRC1 inhibitor project, cell-based, luminescence, high throughput, SRC1 series (AID 602236);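 further: inhibitor potency where hits lower luciferase light from Gal4-VP16 transactivation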

SMILES | pIC50 | IC50
COc1ccccc1-c1cc2nc(-c3ccccc3)cc(N3CCN(C(=O)c4ccco4)CC3)n2n1 | 5.39 | 
CCOC(=O)CSc1cc(-c2ccccc2)nc2ncnn12 |  | > 35.9 µM (inactive)
CCCCN(CCCC)c1ncnc2nc[nH]c12 | 5.16 | 
O=C(Nc1c(-c2ccccc2)[nH][nH]c1=O)c1cccc(C(F)(F)F)c1 |  | > 35.8 µM (inactive)
Cc1cccc(C)c1-c1ccc(CN2C(CC(C)C)C(=O)N(Cc3cn(CC4CCCCC4)nn3)CCS2(=O)=O)cc1 (stereo not given) |  | 16.6 µM (inactive)
COc1cc(OC)c2cc(C(=O)N/N=C/c3cccc(OC)c3O)[nH]c2c1 | 5.03 | 
O=C(Nc1cccc(Cl)c1)Nc1nnc(-c2ccncc2)s1 | 5.29 | 
NNC(=O)c1cc2ccccc2cc1O |  | 18.4 µM (inactive)
CCOC(=O)c1c(NC(=O)C(C)N2CCN(C(=O)c3ccco3)CC2)sc2c1CCCC2 (stereo not given) |  | 11.4 µM (inactive)
Cc1ccccc1C(=O)/C(C#N)=N/Nc1c(C)n(C)n(-c2ccccc2)c1=O | 5.25 | 
O=C(CCl)N1N=C(c2ccco2)CC1c1cccs1 (stereo not given) |  | 16 µM (inactive)
Cc1ccc(O)c(Nc2ncnc3ccc([N+](=O)[O-])cc23)c1 |  | 10.8 µM (inactive)
O=C(Nc1nc(-c2ccccn2)cs1)c1cccc(-n2cnnn2)c1 |  | 17 µM (inactive)
COc1cc(C(=O)NC(=S)NNC(=O)c2cnccn2)cc(OC)c1OC |  | 11.9 µM (inactive)
CCN(CC)CCNC(=O)c1ccc(NC(=O)C2CCN(c3ncnc4sc(C)c(C)c34)CC2)cc1 | 5.26 | 
Cc1sc2ncnc(N3CCC(C(=O)N(C)CC(=O)Nc4cccc(F)c4)CC3)c2c1C |  | 15 µM (inactive)
N#Cc1cc2ccncc2c2ccccc12 | 5.16 | 
O=[N+]([O-])c1ccc2c(c1)-c1ccccc1C2=NO |  | > 35.9 µM (inactive)
CN(Cc1cnc2nc(N)nc(N)c2n1)c1ccc(C(=O)NC(CCC(=O)O)C(=O)O)cc1 (stereo not given) |  | > 35.9 µM (inactive)
Cc1nn(CC(=O)N2CCN(c3cccc(C(F)(F)F)c3)CC2)c(=O)c2cccn12 |  | 17.6 µM (inactive)
Cc1ccc(OCC(=O)c2cc(C)n(Cc3cccs3)c2C)c([N+](=O)[O-])n1 |  | 12.1 µM (inactive)
CCn1ccnc1CN(C)Cc1cn[nH]c1-c1ccc(F)cc1F |  | 11 µM (inactive)
CN(Cc1cnc2nc(N)nc(N)c2n1)c1ccc(C(=O)N[C@@H](CCC(=O)O)C(=O)O)cc1 |  | > 35.9 µM (inactive)
CCN(c1ccccc1)S(=O)(=O)c1cc(C(=O)Nc2ccc(Br)cc2)ccc1F | 5.08 | 
O=C(CSc1nc(-c2cccs2)cc(C(F)(F)F)n1)Nc1cc(OCC(F)(F)C(F)F)cc([N+](=O)[O-])c1 |  | 21.9 µM (inactive)

SMILES | pIC50 | IC50
Nc1ccc(Oc2ccccc2-c2ccccc2)cc1 |  | 19 µM (inactive)
COc1ccc(Nc2ncnc3ccc(C)cc23)cc1 | 5.08 | 
Nc1ccc(-c2cc3ccccc3oc2=O)cc1 |  | > 35.8 µM (inactive)
c1ccc(-c2nnc(-c3ccccn3)nc2NC2CCCCC2)cc1 |  | > 35.9 µM (inactive)
CCOC(=O)CC(=O)CSc1nccc(-c2cccnc2)n1 |  | > 35.9 µM (inactive)
COc1ccccc1NS(=O)(=O)c1cccc(NC(=O)c2cncc(Br)c2)c1 |  | 12 µM (inactive)
CCN(Cc1ccncc1)C(=O)CC1C(=O)NCCN1Cc1ccc(F)c(F)c1 (stereo not given) |  | 15.8 µM (inactive)
Cc1ccc(S(=O)(=O)N2[C@@H](c3ccc(C(C)(C)C)cc3)C(C(=O)O)=CC[C@H]2c2ccc(Cl)cc2)cc1 |  | 16 µM (inactive)
O=C(O)c1ccccc1-c1c2cc(I)c(=O)c(I)c-2oc2c(I)c(O)c(I)cc12 |  | > 35.9 µM (inactive)
COC(=O)c1cccc2c1-c1ccccc1/C2=N/O | 5.31 | 
O=C(N/N=C(\c1ccccc1)c1ccccn1)c1ccccc1Cl |  | 10.8 µM (inactive)
CCc1c(C)nc2c(C)cccc2c1SCCC#N |  | > 35.9 µM (inactive)
CC[C@@]1(O)C(=O)OCc2c1cc1n(c2=O)Cc2cc3c(NC(=O)CN)cccc3nc2-1 |  | > 35.9 µM (inactive)
COc1cccc(C2=CC(=O)CC(C)(C)C2)c1 |  | 24 µM (inactive)
Cc1ccc2occ(/C=N/NC(=O)c3ccncc3)c(=O)c2c1 |  | 22.8 µM (inactive)
C=CCOc1ccc(/C=C2\SC(=S)N(CCC(=O)O)C2=O)cc1 |  | > 35.9 µM (inactive)
Cc1ccc2occ(/C=N/NC(=O)[C@@H](N)Cc3ccccc3)c(=O)c2c1 |  | 12.7 µM (inactive)
CC(C)n1c(-c2cccnc2)nc2cnccc21 | 5.02 | 
COc1cc2c3c([nH]c2cc1F)C(=O)NCC3 |  | 24.8 µM (inactive)
c1ccc(-c2csc3ncnc(NCCN4CCOCC4)c23)cc1 |  | 18.7 µM (inactive)
COc1ccc2c(=O)cc(-c3ccncc3)oc2c1OC |  | > 12 µM (inactive)
O=C(O)CN1C(=O)/C(=C\c2ccccc2OCc2ccc(Cl)cc2Cl)SC1=S |  | > 35.9 µM (inactive)
CCCCCOc1ccc(/C=C/c2c([N+](=O)[O-])c(=O)n(C)c(=O)n2C)cc1 |  | 10.1 µM (inactive)
O=C1NCCc2c1[nH]c1ccc([N+](=O)[O-])cc21 |  | 32 µM (inactive)
CCN1CCN(C(=S)c2ccc(-c3ccccc3)cc2)CC1 |  | 29.5 µM (inactive)

SMILES | pIC50 | IC50
O=C(Nc1cccc(C(F)(F)F)c1)Nc1nnc([C@@H]2C[C@H](O)[C@@H](CO)O2)s1 | 5.10 | 
CC(=O)NC(c1cc(Cl)c2cccnc2c1O)C1CC1 (stereo not given) | 5.03 | 
COc1ccc(-c2cnc(N)nc2-c2ccc(OC)cc2O)cc1 |  | 11.7 µM (inactive)
O=C1CCC2S/C(=C/Nc3ccc(C(F)(F)F)cc3)C(=O)N12 (stereo not given) |  | > 35.9 µM (inactive)
CC(C)Cn1c(N)c(C(=O)COC(=O)c2cc3ccccc3cc2O)c(=O)n(C)c1=O |  | 29.3 µM (inactive)
O=C(CCl)N(c1ccccc1)C1CCS(=O)(=O)C1 (stereo not given) |  | 16.2 µM (inactive)
CN(C)c1ccc(/C=C/c2nc3ccccc3s2)cc1 |  | 19.8 µM (inactive)
CCC(C)(C)n1nnnc1CN1CCC(n2c(C)nc3cc(C(F)(F)F)ccc32)CC1 |  | > 35.9 µM (inactive)
O=C(N/N=C/c1ccccc1O)/C(=C/c1ccccc1)CCO | 5.12 | 
CCn1c(Oc2ccc(F)cc2)nc2c1c(=O)n(C)c(=O)n2C |  | 12.4 µM (inactive)
O=C(COC(=O)c1ccc[nH]c1=O)Nc1ccc(N2CCCCC2)cc1 |  | > 35.9 µM (inactive)
CN(C)c1ccc(Nc2ncnc3ccc(Br)cc23)cc1 | 5.50 | 
CCCS(=O)(=O)c1c(S(=O)(=O)CCC)c2c(C)cccn2c1C(=O)N/N=C/c1cc(O)cc(O)c1 | 5.30 | 
COc1ccccc1N(C(=O)CCl)c1cn(C(C)=O)c2ccccc12 | 5.04 | 
Cc1ccc(O)c(C(=O)c2cnn(C(=O)COc3ccc(Cl)cc3)c2)c1 |  | 27.6 µM (inactive)
Cc1ccc(OCC(=O)c2cc(C)n(-c3ccccc3)c2C)c([N+](=O)[O-])n1 |  | 12.2 µM (inactive)
C=CCc1ccccc1OCC(=O)N/N=C/c1ccc(OC(C)=O)cc1OC(C)=O |  | 22.8 µM (inactive)
Cc1ccc(NC(=O)C2CCN(c3ncnc4sc(C)c(C)c34)CC2)cc1S(=O)(=O)N(C)C |  | 13.4 µM (inactive)
Oc1ccc(C=NNc2ccccn2)c(O)c1 |  | > 35.9 µM (inactive)
Cc1ccc(S(=O)(=O)NC(CC(C)C)C(=O)NCC(c2ccco2)N2CCCCC2)cc1 (stereo not given) |  | > 35.9 µM (inactive)
CC(=O)N1CCN(c2ccc(Oc3ncnc4sccc34)cc2)CC1 | 5.02 | 
COc1ccc(-n2cnc3c(sc4nccc(N(C)C)c43)c2=O)cc1 |  | 14.2 µM (inactive)
Cc1cc(C)nc(SCc2ccc(C(=O)N/N=C/c3cccc(O)c3O)cc2)n1 | 5.28 | 
CN1CCN(c2cccc3c2C(=O)c2ccccc2C3=O)CC1 |  | 23.8 µM (inactive)
Cc1nc2ccccn2c1-c1ccnc(=S)[nH]1 |  | > 35.8 µM (inactive)

SMILES | pIC50 | IC50
CCCCCCCC[n+]1c(C)n(-c2ccccc2)c2ccc(NC(C)=O)cc21 |  | 10.5 µM (inactive)
Cn1nc(C(F)(F)F)c(C#N)c1N1CCN(c2ccccc2)CC1 | 5.20 | 
COc1ccc(-c2ncncc2-c2ccccc2)c(O)c1 |  | 19.4 µM (inactive)
Cc1nc2c(-c3ccc(Cl)cc3)c(C)[nH]n2c(=O)c1Cc1ccccc1 | 5.16 | 
COC(=O)c1sc2cnccc2c1N |  | > 35.9 µM (inactive)
Cc1ccc(NC(=O)CCC(=O)N/N=C/c2ccc(O)cc2O)cc1 |  | 23 µM (inactive)
CCOc1ccccc1-n1c(SCC(=O)Nc2ccccc2C(=O)O)nc2ccccc2c1=O |  | > 35.9 µM (inactive)
CS(=O)(=O)Nc1cccc(NC(=O)C2Cc3c(-c4ccco4)ccnc3O2)c1 (stereo not given) |  | 19.3 µM (inactive)
Cc1nn(C(C)(C)C)c(C)c1/C=N/OC(=O)Nc1ccc(Cl)c(Cl)c1 |  | 13.9 µM (inactive)
COc1ccc(/C=C2\CC/C(=C\c3ccc(OC)c(OC)c3)C2=O)cc1OC | 5.27 | 
O=C(c1ccncc1)N(Cc1cc2ccccc2[nH]c1=O)C1CCCCC1 | 5.10 | 
Cc1c(CC(=O)NCCCC(=O)O)c(=O)oc2cc3c(cc12)CCC(C)(C)O3 |  | 18.4 µM (inactive)
CC1CC(C)C(=NNC(N)=O)C(C(O)CC2CCC(=O)NC2=O)C1 (stereo not given) |  | 12.2 µM (inactive)
OCCN(CCO)CC(O)COc1ccc(C23CC4CC(CC(C4)C2)C3)cc1 (stereo not given) |  | > 35.9 µM (inactive)
CC1CCCCN1c1ncnc2ccccc12 (stereo not given) |  | 13.4 µM (inactive)
CN(C)C=Nc1c(C(=O)c2ccccc2)sc2nccc(N(C)C)c12 |  | > 35.9 µM (inactive)
O=C(NC(=S)Nc1ccc(N2CCN(C(=O)c3ccccc3)CC2)cc1)c1cccs1 |  | 10.5 µM (inactive)
CCCCC(=O)OCC(=O)C1(O)Cc2c(O)c3c(c(O)c2C(OC2CC(NC(=O)C(F)(F)F)C(O)C(C)O2)C1)C(=O)c1c(OC)cccc1C3=O (stereo not given) | 5.17 | 
Cc1ccc(S(=O)(=O)Nc2c(NC3CCCCC3)c3ccccc3oc2=O)c(C)c1 |  | 12.8 µM (inactive)
Cc1ccc(N(Cc2cc(=O)[nH]c3ccccc23)C(=O)CCl)c(C)c1 | 5.18 | 
CC(C)(C)NC(=O)C1(C)CCC(=O)N1CCCn1ccnc1 (stereo not given) |  | 12.5 µM (inactive)
O=[N+]([O-])c1cccc2c1ccc1ncccc12 |  | 12.8 µM (inactive)
CC(C)n1c(SCC(=O)Nc2nc3c(s2)CCCC3)nc2c1c(=O)n(C)c(=O)n2C |  | 13.9 µM (inactive)
O=C1CCC/C1=c1\s/c(=C/c2cccnc2)c(=O)n1-c1ccccc1 |  | 11.2 µM (inactive)
CCCS(=O)(=O)Nc1ccc(Nc2c3ccccc3nc3ccccc23)c(OC)c1 |  | > 35.9 µM (inactive)

From PubChem BioAssay AID602236 (The Scripps Research Institute Molecular Screening Center, 2012)
